Literature values as cited in patent publication US10946025B2, “Compounds” (Glaxo Group Limited, priority 2009, dated 2021).

Columns and labels:
neutrophil = settings: background literature; for superoxide release: neutrophils
neutrophils = settings: treatment of neutrophils; Thelen et al. 1994

SMILES | neutrophil migration (neutrophil) | superoxide release (neutrophil) | fMLP-induced respiratory burst response (neutrophils)
O=c1cc(N2CCOCC2)oc2c(-c3ccccc3)cccc12 [LY294002] | block | block | –
COC[C@H]1OC(=O)c2coc3c2[C@@]1(C)C1=C(C3=O)[C@@H]2CCC(=O)[C@@]2(C)C[C@H]1OC(C)=O [wortmannin] | block | block | prevents
